Consider four compounds from article PMC4752739, “Functional structure and antimicrobial activity of persulcatusin, an antimicrobial peptide from the hard tick Ixodes persulcatus” (Parasites & Vectors, 2016).

Where a SMILES comes first, the peptide text is derived from it. Bridges are numbered along the chain shown (N, C = ends).

One data set concerns MSSA. Put plainly: Short-time killing assay, MSSA. The class given is cell-based, Staphylococcus aureus. The conditions noted are these: 1 h at 37 °C; for Susceptibility in short-time killing assay: colony count, % of control, triplicate. As for the experimental part: (§1) We selected 3 strains each of MSSA and MRSA used in the growth inhibition test. Unlike the growth inhibition test described above, an additional growth inhibition test was conducted using small test tubes. Each mixture of bacteria and peptide solution was incubated for 1 h at 37 °C. After the incubation, 100 μL aliquots were removed from the tubes and inoculated on TS agar plates. The plates were incubated overnight at 37 °C, after which colonies were counted. The same control was prepared as in the growth inhibition test described above. The data were then converted and expressed as a percentage (sample per control).

Data set [1] relates to bovine fetal fibroblasts (BFFs-NCC1). The data set is described as follows: Effect on mammalian cell growth, fibroblasts. The data set is classed as cell-based. The conditions noted are these: 50 μg/mL, 24 h or 48 h, trypan blue staining, automatic cell counter; triplicate. As for the experimental part: (§2) In this study, we used bovine fetal fibroblasts (BFFs-NCC1) and bovine fetal colon epithelial cells (BFCEs-K4DT), which were maintained in the Laboratory of Animal Breeding and Genetics, Tohoku University Graduate School of Agricultural Science. The BFFs-NCC1 and BFCEs-K4DT were cultured in a cell culture dish and wrapped 12-well plates. The nutrient medium of each cell was Dulbecco’s modified Eagle’s medium (DMEM; Nacalai Tesque, Kyoto, Japan or Mediatech, Inc, Manassas, VA, USA) containing 10 % fetal bovine serum (Invitrogen, Carlsbad, CA, USA) and a 1 % antibiotic-antimycotic mixed stock solution (Nacalai Tesque). Then each cell was seeded into 12-well plates at 1 × 10^4 cell/well and 1 × 10^5 cell/well. After overnight incubation, the nutrient mediums were changed to DMEM with IP (0, 5, 10, 50 μg/mL), and cells were incubated for 24 h or 48 h (BFCEs-K4DT only 48 h) at 37 °C. Then, these were collected and measured using a trypan blue staining method, with an EVE™ Automatic cell counter (NanoEnTeK, Seoul, Korea). For BFCEs-K4DT, the morphology of untreated control (IP 0 μg/mL) and treated cell (IP 50 μg/mL) was observed.

The test system of the next data set is BFFs-NCC1. Put plainly: Neutral comet assay, fibroblasts. The class given is cell-based, bovine. The conditions noted are these: neutral conditions. The procedure:
(§3) We prepared BFFs-NCC1 and BFCEs-K4DT treated or untreated with IP 50 μg/mL for 48 h as above experiment. These cells were harvested by centrifugation (800 g, 3 min) and washed with sterile Dulbecco’s Phosphate Buffered Saline (DPBS; GIBCO). To generate positive control for comet tails, a part of each cell is untreated with IP treated 25 μM KMnO4, and all samples placed for 20 min at 4 °C. The comet assay was performed under neutral conditions following the Trevigen protocol. Each cell at 1 × 10^5 cell/mL was combined with molten low-melting agarose at a ratio of 1 : 10 (vol /vol) and immediately pipetted 50 μL onto Comet slides. Slides were stored in the dark for 30 min at 4 °C before immersing in lysis solution overnight. The slides were immersed in freshly prepared neutral electrophoresis buffer (dissolved Tris base and sodium acetate in distilled water, pH 9.0) for 30 min at 4 °C. Gel electrophoresis was performed at 1 volt per cm (measured electrode to electrode) for 45 min in neutral electrophoresis buffer. The comet slides were immersed in DNA precipitation solution (7.5 M ammonium acetate containing 95 % ethanol) for 30 min at room temperature and then in 70 % ethanol for 30 min at room temperature. […] The slides were observed by fluorescence microscopy FSX100 (Olympus, Tokyo, Japan).

For a further data set, the system named is BFCEs-K4DT. The data set is described as follows: Neutral comet assay, colon epithelial cells. The conditions noted are these: neutral conditions. The data set is classed as cell-based, bovine. As for the experimental part:
as §3

The test system of data set [2] is MRSA. Put plainly: Short-time killing assay, MRSA. The data set is classed as cell-based, Staphylococcus aureus. The conditions noted are these: 1 h at 37 °C. The procedure:
as §1

The next data set concerns MRSA clinical strains. Put plainly: Growth inhibition test (MIC), MRSA. The class given is cell-based, Staphylococcus aureus. The conditions noted are these: all 9 clinical isolates of MRSA. The procedure: (§4) In the growth inhibition test, we used 9 clinical strains of methicillin-susceptible S. aureus (MSSA) and 9 clinical strains of MRSA from patients in Jichi Medical University Hospital, using these strains in past report. The bacteria were grown in Trypto Soya (TS; Nissui, Tokyo, Japan) broth for 18–19 h at 37 °C.
(§5) The optical density at 660 nm (OD660) of pre-cultured bacteria was measured using an Ubest-35 (JASCO Corporation, Tokyo, Japan). The adjustment for an OD660 of 0.5 was conducted by adding TS broth. The bacteria were diluted to a final concentration of 1–5 × 10^4 colony forming units (CFUs) /mL with TS broth, after which 50 μL of bacterial suspension and 50 μL of peptide solution were mixed together in a 96-well plate. The peptide solution was prepared by two-fold dilution in TS broth, while the IP solution was prepared to final peptide concentrations of 40, 20, 10, 5, 2.5, 1.25, 0.625, 0.313, 0.157, and 0.079 μg/mL. Each mixture of bacteria and peptide solution was incubated at 37 °C. The OD660 of the cell suspension was measured after 20–24 h incubation by using a Synergy™ HT (BioTek, Winooski, VT, USA). A control was prepared by mixing 50 μL of bacterial suspension, 40 μL of TS broth, and 10 μL of HBSS. The minimal inhibitory concentration (MIC) of the peptides was defined as the lowest concentration of peptide that reduced growth by >90 %.

For data set [3], the system named is methicillin-susceptible S. aureus (MSSA) clinical strains. The data set is described as follows: Growth inhibition test (MIC), MSSA. The data set is classed as cell-based, Staphylococcus aureus. The conditions noted are these: all 9 clinical isolates of MSSA. As for the experimental part: as §4, §5
Data set [4] has as its system bovine fetal colon epithelial cells (BFCEs-K4DT). The data set is described as follows: Effect on mammalian cell growth and morphology, colon epithelial cells. The class given is cell-based. The conditions noted are these: 50 μg/mL, 48 h. As for the experimental part: as §2
Data set [5] concerns MRSA. The conditions noted are these: cited from earlier work. From the text:
Host cytotoxicity of AMPs is a major limitation in their application as antimicrobial drugs. […] Not only that, but DNA damage was not detected in each cell treated with IP in neutral comet assay (Fig. 6). […] Moreover, in the hemolytic assay, we observed minimal hem ... || Treating MRSA infection is challenging owing to the remarkable ability of S. aureus to develop resistance to multiple antibiotics, thus limiting the number of viable therapeutic options. New anti-MRSA drugs called DAP were developed recently, but DAP-resistant bacteria have already been reported. Therefore, there is an urgent need to develop novel antimicrobials with unique mechanisms of action to combat MRSA, one of which is AMP [4]. It has been reported that tick AMP derived from Ornithodoros moubata, with an amino acid sequence similar to that of OMBAC (91 %) (Table 2) ...

For data set [6] the following is noted: cited from earlier work. From the text: Host cytotoxicity of AMPs is a major limitation in their application as antimicrobial drugs. […] Not only that, but DNA damage was not detected in each cell treated with IP in neutral comet assay (Fig. 6). […] Moreover, in the hemolytic assay, we observed minimal hem ...
The mark [7] stands for this setting: positive control, 25 μM, 20 min at 4 °C.

Take `CC[C@H](C)[C@@H]1NC(=O)[C@H](CO)NC(=O)[C@H](CCCNC(=N)N)NC(=O)[C@@H]2CSSC[C@@H](C(=O)N[C@@H](Cc3ccc(O)cc3)C(=O)N[C@@H](CO)C(=O)N[C@@H](CCCNC(=N)N)C(=O)O)NC(=O)[C@H]([C@@H](C)O)NC(=O)[C@@H]3CSSC[C@H](NC(=O)[C@H](C)NC(=O)CNC(=O)[C@H](CCC(N)=O)NC(=O)[C@H](CC(N)=O)NC(=O)[C@H](Cc4ccccc4)NC(=O)[C@@H]4CCCN4C(=O)[C@@H](NC(=O)CNC(=O)[C@H](Cc4ccccc4)NC(=O)CN)CSSC[C@H](NC(=O)[C@H](Cc4ccc(O)cc4)NC(=O)CNC(=O)CNC(=O)[C@H](CCCNC(=N)N)NC(=O)[C@H](CCCNC(=N)N)NC(=O)CNC1=O)C(=O)N[C@@H](C)C(=O)NCC(=O)N[C@@H](CC(C)C)C(=O)N[C@@H](Cc1ccccc1)C(=O)N[C@@H](CCCCN)C(=O)N[C@@H](CCC(N)=O)C(=O)N[C@@H]([C@@H](C)O)C(=O)N3)C(=O)N[C@@H](Cc1c[nH]cn1)C(=O)N[C@@H](CCCNC(=N)N)C(=O)N[C@@H](Cc1c[nH]cn1)C(=O)N2` [IP, persulcatusin] (H-GFGCPFNQGACHRHCRSIGRRGGYCAGLFKQTCTCYSR-OH; disulfide 4-25, 11-33, 15-35 (inferred); N-terminus and C-terminus assumed): the “Bactericidal activity within 1 h” value in the data set with MSSA (MSSA) and in the data set on MRSA [2] (MRSA) was “dose-dependent bactericidal activity” each time. Moreover, the “Susceptibility in short-time killing assay” value in the data set with MSSA (strain MS-3) was “susceptible”; with MSSA (strains MS-1 and MS-2), “relatively resistant”; in the data set on MRSA [2] (all MRSA strains (MR-1, 2, 3), colony count, % of control, triplicate), “susceptible”. Moreover, the “Number of cells after treatment” value in data set [1] was “no significant differences”; in [4] (trypan blue staining, automatic cell counter, triplicate) it was “no significant differences”. Moreover, the “DNA damage (comet tails)” value with BFFs-NCC1 (50 μg/mL for 48 h) and in the data set with BFCEs-K4DT (50 μg/mL for 48 h) was “no comet tails” in each case. The “MIC at which growth of all 9 clinical isolates was inhibited” value in the data set with MRSA clinical strains amounted to 2.5 µg/mL; in [3], 1.25 µg/mL. The “Cell morphology after treatment” value in data set [4] is recorded as “no morphological change”.

Take `[K+].[O]=[Mn](=[O])(=[O])[O-]` [KMnO4, reference compound]: the “DNA damage (comet tails)” value in the data set on BFFs-NCC1 (setting [7]) and with BFCEs-K4DT (setting [7]) was “some comet tails” each time.

Consider “GYGCPFNQYQCHSHCSGIRGYKGGYCKGTFKQTCKCY [(No use), 91 % similar to OMBAC]”, for which the “MIC against MRSA” value in the data set with MRSA [5] is recorded as “low MIC”.

On to melittin, for which the Hemolytic activity result in data set [6] was “hemolytic activity”. For the same compound, the “Antimicrobial activity against MRSA” value with MRSA [5] is recorded as “antimicrobial activity against MRSA”.

For orientation: MIC means the least concentration at which growth counts as inhibited.
